The target of one data set is T1, Lipolytic enzyme, G-D-S-L family (Bacteroides thetaiotaomicron, UniProt Q8A0E6).
T1 sequence (Q8A0E6 whole entry): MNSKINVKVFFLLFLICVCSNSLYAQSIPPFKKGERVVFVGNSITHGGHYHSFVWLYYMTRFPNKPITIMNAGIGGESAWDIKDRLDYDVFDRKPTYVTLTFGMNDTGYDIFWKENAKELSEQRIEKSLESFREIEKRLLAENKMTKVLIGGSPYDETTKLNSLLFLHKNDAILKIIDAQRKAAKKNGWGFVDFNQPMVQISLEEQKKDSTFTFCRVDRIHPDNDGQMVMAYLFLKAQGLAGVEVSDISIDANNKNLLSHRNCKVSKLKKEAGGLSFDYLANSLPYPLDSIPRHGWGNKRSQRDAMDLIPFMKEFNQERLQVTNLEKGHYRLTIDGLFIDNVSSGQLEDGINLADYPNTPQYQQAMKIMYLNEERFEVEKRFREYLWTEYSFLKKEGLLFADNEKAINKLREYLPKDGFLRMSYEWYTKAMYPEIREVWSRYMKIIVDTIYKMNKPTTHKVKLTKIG
The data set can be described thus: (§1) The drug is tested on Bacteroides thetaiotaomicron strain: VPI-5482 for biotransformation. The drug concentrations were measured before and after a 12-h incubation by liquid-chromatography-coupled mass spectrometry (LC–MS). The class given is ADME. Set-up: dose 2 uM. The note with it: 2 µM.
For the molecule `Nc1ccc(/N=N/c2ccccc2)c(N)n1` [PHENAZOPYRIDINE], the “Bacterial Biotransformation” value is “Compound NOT metabolized”.

With `CCN(CC)C(=O)/C(C#N)=C/c1cc(O)c(O)c([N+](=O)[O-])c1` [ENTACAPONE], the “Bacterial Biotransformation” value is reported as “Compound NOT metabolized”.

With `CCS(=O)(=O)CCn1c([N+](=O)[O-])cnc1C` [TINIDAZOLE], the “Bacterial Biotransformation” value was “Compound NOT metabolized”.

Another data set deals with T2, Endoglucanase E (EGE) (Bacteroides thetaiotaomicron, UniProt Q8AAL9).
T2 sequence (Q8AAL9 whole entry): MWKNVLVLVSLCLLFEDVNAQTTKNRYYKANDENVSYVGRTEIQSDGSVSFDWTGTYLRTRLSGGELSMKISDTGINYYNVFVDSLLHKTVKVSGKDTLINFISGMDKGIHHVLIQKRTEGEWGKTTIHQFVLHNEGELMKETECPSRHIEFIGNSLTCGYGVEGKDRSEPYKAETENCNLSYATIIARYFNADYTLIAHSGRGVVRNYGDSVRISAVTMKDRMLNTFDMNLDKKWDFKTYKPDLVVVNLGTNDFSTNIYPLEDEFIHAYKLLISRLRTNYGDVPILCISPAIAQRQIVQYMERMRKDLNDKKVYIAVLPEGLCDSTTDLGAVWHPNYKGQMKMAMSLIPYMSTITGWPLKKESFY
The data set is described as §1. It is filed as ADME. The note with it: 2 µM. Set-up: dose 2 uM.
As for `Nc1ccc(/N=N/c2ccccc2)c(N)n1` [PHENAZOPYRIDINE], the “Bacterial Biotransformation” value is “Compound NOT metabolized”.

For `CCN(CC)C(=O)/C(C#N)=C/c1cc(O)c(O)c([N+](=O)[O-])c1` [ENTACAPONE], the “Bacterial Biotransformation” value is “Compound NOT metabolized”.

Take `CCS(=O)(=O)CCn1c([N+](=O)[O-])cnc1C` [TINIDAZOLE]: the “Bacterial Biotransformation” value is reported as “Compound NOT metabolized”.

The target of another data set is General stress protein (Bacteroides thetaiotaomicron, UniProt Q8A7U5). The data set is described as §1. It is filed as ADME. Set-up: dose 2 uM. The note with it: 2 µM.
Chain of General stress protein (Q8A7U5 1-138, change not shown): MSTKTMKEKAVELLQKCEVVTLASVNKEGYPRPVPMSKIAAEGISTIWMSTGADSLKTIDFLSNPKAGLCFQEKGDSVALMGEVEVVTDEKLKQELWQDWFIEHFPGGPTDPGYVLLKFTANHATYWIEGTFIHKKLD
Turning to `Nc1ccc(/N=N/c2ccccc2)c(N)n1` [PHENAZOPYRIDINE], the “Bacterial Biotransformation” value was “Compound metabolized”.

In the case of `CCN(CC)C(=O)/C(C#N)=C/c1cc(O)c(O)c([N+](=O)[O-])c1` [ENTACAPONE], the “Bacterial Biotransformation” value is “Compound NOT metabolized”.

Regarding `CCS(=O)(=O)CCn1c([N+](=O)[O-])cnc1C` [TINIDAZOLE], the “Bacterial Biotransformation” value is “Compound NOT metabolized”.

Another data set has as its target T3, Sialic acid-specific 9-O-acetylesterase (Bacteroides thetaiotaomicron, UniProt Q8A0D0).
T3 sequence (Q8A0D0 whole entry): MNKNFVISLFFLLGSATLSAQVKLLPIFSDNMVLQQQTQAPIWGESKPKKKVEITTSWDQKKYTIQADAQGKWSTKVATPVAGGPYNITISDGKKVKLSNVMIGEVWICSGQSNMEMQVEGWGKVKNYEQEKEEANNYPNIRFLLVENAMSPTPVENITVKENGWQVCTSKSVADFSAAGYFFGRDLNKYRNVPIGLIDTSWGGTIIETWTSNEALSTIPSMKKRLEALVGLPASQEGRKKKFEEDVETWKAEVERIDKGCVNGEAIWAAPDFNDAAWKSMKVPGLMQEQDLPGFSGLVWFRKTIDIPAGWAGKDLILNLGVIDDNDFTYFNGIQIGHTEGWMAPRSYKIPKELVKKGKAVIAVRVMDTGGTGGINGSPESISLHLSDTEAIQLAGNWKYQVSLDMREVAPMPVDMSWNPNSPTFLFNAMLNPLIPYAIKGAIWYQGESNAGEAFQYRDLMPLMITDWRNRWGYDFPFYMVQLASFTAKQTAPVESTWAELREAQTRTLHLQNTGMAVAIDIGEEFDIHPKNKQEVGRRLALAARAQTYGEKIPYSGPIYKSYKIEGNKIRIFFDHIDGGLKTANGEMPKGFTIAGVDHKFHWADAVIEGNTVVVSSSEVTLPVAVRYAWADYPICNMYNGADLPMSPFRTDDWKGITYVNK
The description is as §1. It is filed as ADME. Particulars: 2 µM. Also noted: dose 2 uM.
Consider `Nc1ccc(/N=N/c2ccccc2)c(N)n1` [PHENAZOPYRIDINE], for which the “Bacterial Biotransformation” value is “Compound NOT metabolized”.

On to `CCN(CC)C(=O)/C(C#N)=C/c1cc(O)c(O)c([N+](=O)[O-])c1` [ENTACAPONE], for which the “Bacterial Biotransformation” value is on record as “Compound NOT metabolized”.

On to `CCS(=O)(=O)CCn1c([N+](=O)[O-])cnc1C` [TINIDAZOLE], for which the “Bacterial Biotransformation” value is “Compound NOT metabolized”.

In another data set the target is T4, Regulatory protein (Bacteroides thetaiotaomicron, UniProt Q8A576).
T4 sequence (Q8A576 whole entry): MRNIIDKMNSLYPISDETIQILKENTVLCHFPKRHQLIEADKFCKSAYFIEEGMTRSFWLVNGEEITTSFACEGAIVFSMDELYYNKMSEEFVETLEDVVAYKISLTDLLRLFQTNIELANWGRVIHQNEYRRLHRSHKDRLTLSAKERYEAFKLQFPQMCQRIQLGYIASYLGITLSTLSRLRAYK
Described as §1. The class given is ADME. Also noted: dose 2 uM. The note with it: 2 µM.
Regarding `Nc1ccc(/N=N/c2ccccc2)c(N)n1` [PHENAZOPYRIDINE], the “Bacterial Biotransformation” value is recorded as “Compound NOT metabolized”.

`CCN(CC)C(=O)/C(C#N)=C/c1cc(O)c(O)c([N+](=O)[O-])c1` [ENTACAPONE]: the “Bacterial Biotransformation” value is reported as “Compound NOT metabolized”.

Consider `CCS(=O)(=O)CCn1c([N+](=O)[O-])cnc1C` [TINIDAZOLE], for which the “Bacterial Biotransformation” value is “Compound NOT metabolized”.

Another data set has as its target T5, Sialic acid-specific acetylesterase (Bacteroides thetaiotaomicron, UniProt Q8A331).
T5 sequence (Q8A331 whole entry): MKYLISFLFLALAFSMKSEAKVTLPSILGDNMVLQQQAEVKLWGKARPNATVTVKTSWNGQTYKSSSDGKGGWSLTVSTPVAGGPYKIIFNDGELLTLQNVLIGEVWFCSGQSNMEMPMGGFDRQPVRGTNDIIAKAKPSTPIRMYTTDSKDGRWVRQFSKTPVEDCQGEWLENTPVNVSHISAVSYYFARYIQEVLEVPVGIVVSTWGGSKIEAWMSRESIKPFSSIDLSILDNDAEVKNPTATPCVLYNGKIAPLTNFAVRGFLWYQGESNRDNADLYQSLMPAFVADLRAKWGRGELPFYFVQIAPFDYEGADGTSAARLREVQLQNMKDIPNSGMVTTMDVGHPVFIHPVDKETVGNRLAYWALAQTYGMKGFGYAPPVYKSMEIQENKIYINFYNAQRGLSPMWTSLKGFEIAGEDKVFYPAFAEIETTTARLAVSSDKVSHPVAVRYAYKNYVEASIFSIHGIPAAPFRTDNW
The data set is described as §1. The note with it: 2 µM. Also noted: dose 2 uM. It is filed as ADME.
`Nc1ccc(/N=N/c2ccccc2)c(N)n1` [PHENAZOPYRIDINE]: the “Bacterial Biotransformation” value was “Compound NOT metabolized”.

`CCN(CC)C(=O)/C(C#N)=C/c1cc(O)c(O)c([N+](=O)[O-])c1` [ENTACAPONE]: the “Bacterial Biotransformation” value is “Compound NOT metabolized”.

Consider `CCS(=O)(=O)CCn1c([N+](=O)[O-])cnc1C` [TINIDAZOLE], for which the “Bacterial Biotransformation” value was “Compound NOT metabolized”.

Another data set addresses T6, Nitroreductase (Bacteroides thetaiotaomicron, UniProt Q8A911).
T6 sequence (Q8A911 whole entry): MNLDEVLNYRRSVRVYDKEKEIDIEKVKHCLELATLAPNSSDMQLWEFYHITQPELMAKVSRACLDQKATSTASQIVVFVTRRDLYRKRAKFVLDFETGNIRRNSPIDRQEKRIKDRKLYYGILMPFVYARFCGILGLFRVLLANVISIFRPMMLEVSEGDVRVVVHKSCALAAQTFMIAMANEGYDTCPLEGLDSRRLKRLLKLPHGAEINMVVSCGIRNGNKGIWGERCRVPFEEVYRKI
The data set is described as §1. Particulars: 2 µM. Set-up: dose 2 uM. The class given is ADME.
For the molecule `Nc1ccc(/N=N/c2ccccc2)c(N)n1` [PHENAZOPYRIDINE], the “Bacterial Biotransformation” value was “Compound NOT metabolized”.

`CCN(CC)C(=O)/C(C#N)=C/c1cc(O)c(O)c([N+](=O)[O-])c1` [ENTACAPONE]: the “Bacterial Biotransformation” value is given as “Compound NOT metabolized”.

Take `CCS(=O)(=O)CCn1c([N+](=O)[O-])cnc1C` [TINIDAZOLE]: the “Bacterial Biotransformation” value is “Compound metabolized”.

The next data set addresses T7, Acyltransferase (Bacteroides thetaiotaomicron, UniProt Q8A575).
T7 sequence (Q8A575 whole entry): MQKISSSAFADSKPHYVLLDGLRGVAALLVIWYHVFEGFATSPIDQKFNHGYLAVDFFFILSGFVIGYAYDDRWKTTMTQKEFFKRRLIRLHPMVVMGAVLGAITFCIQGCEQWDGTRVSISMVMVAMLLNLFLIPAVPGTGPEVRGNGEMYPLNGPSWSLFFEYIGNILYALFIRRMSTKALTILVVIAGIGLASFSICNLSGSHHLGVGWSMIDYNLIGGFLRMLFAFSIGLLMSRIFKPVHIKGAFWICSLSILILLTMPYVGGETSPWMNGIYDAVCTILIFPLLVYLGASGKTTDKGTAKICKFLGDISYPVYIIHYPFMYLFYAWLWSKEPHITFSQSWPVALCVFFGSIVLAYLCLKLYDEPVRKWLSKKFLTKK
The description is as §1. It is filed as ADME. Particulars: 2 µM. Also noted: dose 2 uM.
`Nc1ccc(/N=N/c2ccccc2)c(N)n1` [PHENAZOPYRIDINE]: the “Bacterial Biotransformation” value is listed as “Compound NOT metabolized”.

Take `CCN(CC)C(=O)/C(C#N)=C/c1cc(O)c(O)c([N+](=O)[O-])c1` [ENTACAPONE]: the “Bacterial Biotransformation” value is listed as “Compound NOT metabolized”.

Turning to `CCS(=O)(=O)CCn1c([N+](=O)[O-])cnc1C` [TINIDAZOLE], the “Bacterial Biotransformation” value is reported as “Compound NOT metabolized”.

Source of the values: ChEMBL document CHEMBL5303573, “Mapping human microbiome drug metabolism by gut bacteria and their genes” (Nature, 2019).
